Results reported in article PMC5078040 (Oncotarget, 2016).

What was measured:
PI3Kα = molecular target: T1, PI3Kα (Mus musculus, UniProt P42337); assay: PI3Ks isoform in cell EC50 assay (AKT phosphorylation, Western Blotting); format: cell-based; conditions: NIH-3T3, 20ng/ml PDGF-BB, read-out: cellular EC50 PI3K Alpha
T1 construct: endogenous in cells; host or cells: NIH-3T3

PI3Kβ = molecular target: T2, PI3Kβ (Mus musculus, UniProt Q8BTI9); assay: as above; format: cell-based; conditions: NIH-3T3, 5μM LPA, read-out: cellular EC50 PI3K Beta
T2 construct: endogenous in cells; host or cells: NIH-3T3
T2 sequence (Q8BTI9 whole entry): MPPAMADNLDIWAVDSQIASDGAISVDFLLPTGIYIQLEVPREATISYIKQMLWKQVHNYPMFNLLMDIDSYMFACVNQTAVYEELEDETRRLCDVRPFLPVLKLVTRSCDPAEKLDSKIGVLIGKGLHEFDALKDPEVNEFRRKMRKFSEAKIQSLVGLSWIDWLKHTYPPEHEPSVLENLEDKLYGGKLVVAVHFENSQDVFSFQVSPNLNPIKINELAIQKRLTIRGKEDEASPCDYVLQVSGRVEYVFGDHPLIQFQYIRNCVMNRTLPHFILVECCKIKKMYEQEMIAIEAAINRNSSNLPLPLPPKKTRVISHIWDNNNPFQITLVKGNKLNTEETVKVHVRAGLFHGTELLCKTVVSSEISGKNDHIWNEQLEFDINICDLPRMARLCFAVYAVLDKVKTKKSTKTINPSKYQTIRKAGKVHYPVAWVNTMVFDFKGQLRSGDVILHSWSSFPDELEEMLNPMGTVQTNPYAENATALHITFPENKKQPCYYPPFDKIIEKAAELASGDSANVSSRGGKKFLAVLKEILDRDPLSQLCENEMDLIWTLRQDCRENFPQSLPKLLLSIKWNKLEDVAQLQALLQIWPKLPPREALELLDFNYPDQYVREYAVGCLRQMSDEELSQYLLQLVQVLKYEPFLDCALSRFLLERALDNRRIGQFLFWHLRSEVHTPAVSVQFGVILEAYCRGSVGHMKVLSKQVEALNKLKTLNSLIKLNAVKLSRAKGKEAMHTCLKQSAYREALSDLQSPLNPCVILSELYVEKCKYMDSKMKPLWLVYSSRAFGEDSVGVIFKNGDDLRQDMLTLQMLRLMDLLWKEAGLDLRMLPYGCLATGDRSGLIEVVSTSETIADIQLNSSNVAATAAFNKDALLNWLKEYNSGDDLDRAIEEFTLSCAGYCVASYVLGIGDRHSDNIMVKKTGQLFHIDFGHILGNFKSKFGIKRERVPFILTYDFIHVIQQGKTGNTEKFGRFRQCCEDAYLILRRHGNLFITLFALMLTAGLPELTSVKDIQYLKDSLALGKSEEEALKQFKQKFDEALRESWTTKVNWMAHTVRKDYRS
T2 sequence (P26450 whole entry partner): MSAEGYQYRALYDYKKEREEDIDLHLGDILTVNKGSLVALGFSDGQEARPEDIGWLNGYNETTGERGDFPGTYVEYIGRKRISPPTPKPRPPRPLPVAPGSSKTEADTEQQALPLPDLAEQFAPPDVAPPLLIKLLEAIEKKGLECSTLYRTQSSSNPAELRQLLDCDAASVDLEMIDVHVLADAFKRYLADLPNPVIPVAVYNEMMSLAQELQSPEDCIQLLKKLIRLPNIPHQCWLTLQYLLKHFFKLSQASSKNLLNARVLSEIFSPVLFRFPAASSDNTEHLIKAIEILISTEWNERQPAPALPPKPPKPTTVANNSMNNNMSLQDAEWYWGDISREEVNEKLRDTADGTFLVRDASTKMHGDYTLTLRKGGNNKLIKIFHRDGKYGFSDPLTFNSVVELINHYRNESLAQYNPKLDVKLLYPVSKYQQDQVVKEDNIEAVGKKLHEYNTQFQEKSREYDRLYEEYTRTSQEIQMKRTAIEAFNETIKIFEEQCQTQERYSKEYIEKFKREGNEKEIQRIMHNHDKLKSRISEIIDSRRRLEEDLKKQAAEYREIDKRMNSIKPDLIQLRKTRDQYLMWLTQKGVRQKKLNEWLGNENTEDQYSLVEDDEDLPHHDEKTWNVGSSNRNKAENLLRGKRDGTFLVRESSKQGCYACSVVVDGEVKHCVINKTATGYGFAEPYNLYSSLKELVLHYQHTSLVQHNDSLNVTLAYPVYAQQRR

AMO-1 = assay: Anti-proliferative assay; format: cell-based; conditions: Homo sapiens, AMO1; AMO-1, MM; 72 hours, CellTiter-Glo
Description: (§1) Cells were grown in 96-well culture plates (3000-4000/well). […] Cell proliferation was determined after treatment with compounds for 72 hours. Cell viability was measured using the CellTiter–Glo Assay Kit (Promega, USA), according to the manufacturer's instructions, and luminescence was measured in a multi-label reader (Envision, PerkinElmer, USA). Data were normalized to control groups (DMSO) and represented by the mean of three independent measurements with standard error <20%. GI50 values were calculated using Prism 5.0 (GraphPad Software, San Diego, CA).

CMK = assay: Anti-proliferative assay; format: cell-based; conditions: Homo sapiens, AML, 72 hours, CellTiter-Glo
Description: as §1

HEL = assay: Anti-proliferative assay; format: cell-based; conditions: Homo sapiens, AML-M6, 72 hours, CellTiter-Glo
Description: as §1

HL-60 = assay: Anti-proliferative assay; format: cell-based; conditions: Homo sapiens; HL-60, AML-M2; 72 hours, CellTiter-Glo
Description: as §1

HT = assay: Anti-proliferative assay; format: cell-based; conditions: Homo sapiens, B-cell lymphoma, 72 hours, CellTiter-Glo
Description: as §1

Hs 505T = assay: Anti-proliferative assay; format: cell-based; conditions: Homo sapiens, CLL, 72 hours, CellTiter-Glo
Description: as §1

JVM-2 = assay: Anti-proliferative assay; format: cell-based; conditions: Homo sapiens; JVM-2, Mantle cell lymphoma; 72 hours, CellTiter-Glo
Description: as §1

MEC-1 = assay: Anti-proliferative assay; format: cell-based; conditions: Homo sapiens, MEC1; MEC-1, CLL; 72 hours, CellTiter-Glo
Description: as §1

MEC-2 = assay: Anti-proliferative assay; format: cell-based; conditions: Homo sapiens, MEC2; MEC-2, CLL; 72 hours, CellTiter-Glo
Description: as §1

MOLM-13 = assay: Anti-proliferative assay; format: cell-based; conditions: Homo sapiens; MOLM-13, AML-M5; 72 hours, CellTiter-Glo
Description: as §1

MOLM-14 = assay: Anti-proliferative assay; format: cell-based; conditions: Homo sapiens; MOLM-14, AML-M5; 72 hours, CellTiter-Glo
Description: as §1

MV4-11 = assay: Anti-proliferative assay; format: cell-based; conditions: Homo sapiens; MV4-11, AML; 72 hours, CellTiter-Glo
Description: as §1

NALM-6 = assay: Anti-proliferative assay; format: cell-based; conditions: Homo sapiens, 72 hours, CellTiter-Glo
Description: as §1

NB4 = assay: Anti-proliferative assay; format: cell-based; conditions: Homo sapiens; NB4, AML-3; 72 hours, CellTiter-Glo
Description: as §1

NOMO-1 = assay: Anti-proliferative assay; format: cell-based; conditions: Homo sapiens; NOMO-1, AML-M5; 72 hours, CellTiter-Glo
Description: as §1

Namalwa = assay: Anti-proliferative assay; format: cell-based; conditions: Homo sapiens, Burrkit lymphoma, 72 hours, CellTiter-Glo
Description: as §1

OCI-AML-2 = assay: Anti-proliferative assay; format: cell-based; conditions: Homo sapiens, OCI-AML2; OCI-AML-2, AML-M4; 72 hours, CellTiter-Glo
Description: as §1

OCI-AML-3 = assay: Anti-proliferative assay; format: cell-based; conditions: Homo sapiens; OCI-AML-3, AML-M4; 72 hours, CellTiter-Glo
Description: as §1

PF382 = assay: Anti-proliferative assay; format: cell-based; conditions: Homo sapiens, PF-382; PF382, ALL; 72 hours, CellTiter-Glo
Description: as §1

RPMI8226 = assay: Anti-proliferative assay; format: cell-based; conditions: Homo sapiens, RPMI-8226; RPMI8226, MM; 72 hours, CellTiter-Glo
Description: as §1

Ramos(new) = assay: Anti-proliferative assay; format: cell-based; conditions: Homo sapiens, Burrkit lymphoma, 72 hours, CellTiter-Glo
Description: as §1

SKM-1 = assay: Anti-proliferative assay; format: cell-based; conditions: Homo sapiens; SKM-1, AML-M5; 72 hours, CellTiter-Glo
Description: as §1

U937 = assay: Anti-proliferative assay; format: cell-based; conditions: Homo sapiens, U-937; U937, AML; 72 hours, CellTiter-Glo
Description: as §1

CLL patient primary cell = assay: Anti-proliferative efficacy against patient primary cells; format: cell-based; conditions: Homo sapiens
Description: Peripheral blood mononuclear cells (PBMCs) from individuals with CLL were isolated by density centrifugation through Ficoll and frozen for each subject. Those subjects with low white counts whose CLL cell purity was expected to be < 85% underwent B cell isolation using RosetteSep. The protocol was approved by the Dana-Farber Harvard Cancer Center Institutional Review Board and all subjects signed written informed consent prior to participation.
as §1

AML patient primary cell = assay: as above; format: cell-based; conditions: Homo sapiens
Description: Mononuclear cells were isolated from AML patients. Mononuclear cells were isolated by density gradient centrifugation through Ficoll-Plaque Plus (Amersham Pharmacia Biotech AB, Uppsala, Sweden) at 2000 rpm for 30 minutes, followed by two washes in 1X PBS. Freeze-thawed cells were then cultured in liquid culture (DMEM, supplemented with 20% FBS). All blood and bone marrow samples from AML patients were obtained through written consent under approval of the Dana Farber Cancer Institute Institutional Review Board. The ethics committees approved the consent procedure.
as §1

PI3Kγ = PI3Kγ (Mus musculus, UniProt Q9JHG7); assay: cell-based
Chain of PI3Kγ (Q9JHG7 whole entry): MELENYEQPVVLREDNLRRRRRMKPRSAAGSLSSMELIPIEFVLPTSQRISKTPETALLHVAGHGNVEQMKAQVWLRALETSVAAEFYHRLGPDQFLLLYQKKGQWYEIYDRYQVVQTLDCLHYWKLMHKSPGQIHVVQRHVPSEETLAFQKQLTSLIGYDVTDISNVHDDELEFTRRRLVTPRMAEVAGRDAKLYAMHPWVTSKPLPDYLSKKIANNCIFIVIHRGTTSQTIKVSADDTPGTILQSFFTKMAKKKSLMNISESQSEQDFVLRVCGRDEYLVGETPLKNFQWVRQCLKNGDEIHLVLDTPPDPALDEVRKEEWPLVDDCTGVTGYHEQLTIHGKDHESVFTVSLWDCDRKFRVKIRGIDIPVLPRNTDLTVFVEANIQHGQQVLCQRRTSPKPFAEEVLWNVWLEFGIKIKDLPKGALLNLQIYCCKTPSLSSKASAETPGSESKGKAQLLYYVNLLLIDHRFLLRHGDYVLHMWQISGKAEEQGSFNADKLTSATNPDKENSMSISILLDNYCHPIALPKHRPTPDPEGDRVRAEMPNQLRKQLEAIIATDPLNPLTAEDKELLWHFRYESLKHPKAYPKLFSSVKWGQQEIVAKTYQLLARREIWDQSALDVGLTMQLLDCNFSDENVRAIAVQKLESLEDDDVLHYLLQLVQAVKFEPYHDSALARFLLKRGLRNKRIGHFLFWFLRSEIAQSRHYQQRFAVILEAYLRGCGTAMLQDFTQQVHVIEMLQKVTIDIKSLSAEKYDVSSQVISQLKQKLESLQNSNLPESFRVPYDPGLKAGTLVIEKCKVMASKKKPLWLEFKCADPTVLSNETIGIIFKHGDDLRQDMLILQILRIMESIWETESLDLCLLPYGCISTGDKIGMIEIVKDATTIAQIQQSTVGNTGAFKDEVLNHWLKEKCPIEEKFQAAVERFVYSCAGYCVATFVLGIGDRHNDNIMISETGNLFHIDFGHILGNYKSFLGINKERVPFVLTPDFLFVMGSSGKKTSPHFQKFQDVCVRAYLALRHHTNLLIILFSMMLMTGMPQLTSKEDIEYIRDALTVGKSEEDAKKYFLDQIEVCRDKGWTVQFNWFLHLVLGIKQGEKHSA

T1 sequence (P42337 whole entry, canonical isoform): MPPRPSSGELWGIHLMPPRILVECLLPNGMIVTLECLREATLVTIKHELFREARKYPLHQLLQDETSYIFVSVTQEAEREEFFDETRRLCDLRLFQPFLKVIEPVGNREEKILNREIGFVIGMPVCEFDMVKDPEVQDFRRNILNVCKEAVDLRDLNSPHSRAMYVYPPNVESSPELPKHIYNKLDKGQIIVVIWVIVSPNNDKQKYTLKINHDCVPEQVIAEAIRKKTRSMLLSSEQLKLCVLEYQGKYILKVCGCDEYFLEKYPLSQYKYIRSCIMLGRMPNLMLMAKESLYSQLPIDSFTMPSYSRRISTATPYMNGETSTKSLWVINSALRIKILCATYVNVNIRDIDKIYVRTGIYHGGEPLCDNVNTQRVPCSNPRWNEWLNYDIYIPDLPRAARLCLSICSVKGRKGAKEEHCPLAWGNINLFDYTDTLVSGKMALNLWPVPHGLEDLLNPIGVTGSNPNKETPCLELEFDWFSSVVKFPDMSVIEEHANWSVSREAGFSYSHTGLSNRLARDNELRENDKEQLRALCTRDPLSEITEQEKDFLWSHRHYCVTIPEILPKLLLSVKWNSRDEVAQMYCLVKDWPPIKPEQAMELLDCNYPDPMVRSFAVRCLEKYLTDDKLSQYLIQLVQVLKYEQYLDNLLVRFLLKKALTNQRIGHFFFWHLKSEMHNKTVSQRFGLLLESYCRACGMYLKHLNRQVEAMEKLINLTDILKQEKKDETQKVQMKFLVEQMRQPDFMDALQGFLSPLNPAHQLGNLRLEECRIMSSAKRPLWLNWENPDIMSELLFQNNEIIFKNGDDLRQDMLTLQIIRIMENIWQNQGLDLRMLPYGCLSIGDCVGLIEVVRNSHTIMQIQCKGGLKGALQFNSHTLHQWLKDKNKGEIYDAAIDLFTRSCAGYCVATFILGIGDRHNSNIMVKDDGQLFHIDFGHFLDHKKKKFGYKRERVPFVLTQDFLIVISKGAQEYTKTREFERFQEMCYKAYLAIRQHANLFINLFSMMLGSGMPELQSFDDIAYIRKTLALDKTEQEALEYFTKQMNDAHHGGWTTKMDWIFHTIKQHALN
T1 sequence (P26450 whole entry partner, canonical isoform): as the sequence (P26450 whole entry partner) above

Q: What does the source list for `CC[C@H](Nc1ncnc2[nH]cnc12)c1nc2cccc(F)c2c(=O)n1-c1ccccc1` [CAL-101, Idelalisib]?
A: EC50 (PI3Kα): > 3000 nM; EC50 (PI3Kβ): > 3000 nM; GI50 (AMO-1): > 10000 nM; GI50 (CMK): > 10000 nM; GI50 (HEL): > 10000 nM; GI50 (HL-60): > 10000 nM; GI50 (HT): > 10000 nM; GI50 (Hs 505T): > 10000 nM; GI50 (JVM-2): > 10000 nM; GI50 (MEC-1): > 10000 nM; GI50 (MEC-2): > 10000 nM; GI50 (MOLM-13): > 10000 nM; GI50 (MOLM-14): 7800 nM; GI50 (MV4-11): > 10000 nM; GI50 (NALM-6): > 10000 nM; GI50 (NB4): > 10000 nM; GI50 (NOMO-1): > 10000 nM; GI50 (Namalwa): > 10000 nM; GI50 (OCI-AML-2): > 10000 nM; GI50 (OCI-AML-3): 2400 nM; GI50 (PF382): > 10000 nM; GI50 (RPMI8226): > 10000 nM; GI50 (Ramos(new)): > 10000 nM; GI50 (SKM-1): > 10000 nM; GI50 (U937): > 10000 nM; GI50 (CLL patient primary cell; patient primary cell CLL16): > 10000 nM; GI50 (CLL patient primary cell; patient primary cell CLL18): > 10000 nM; GI50 (CLL patient primary cell; patient primary cell CLL19): > 10000 nM; GI50 (AML patient primary cell; AML1, patient primary cell AML1): > 10000 nM; GI50 (AML patient primary cell; AML3, patient primary cell AML3): > 10000 nM; GI50 (AML patient primary cell; patient primary cell AML2): 1010 nM; GI50 (AML patient primary cell; patient primary cell AML4): > 10000 nM; GI50 (AML patient primary cell; patient primary cell AML5): > 10000 nM; GI50 (AML patient primary cell; patient primary cell AML6): > 10000 nM; EC50 (PI3Kγ): 2320 nM

Q: How did the EC50 (PI3Kα) turn out when `CS(=O)(=O)N1CCN(Cc2cc3nc(-c4cccc5[nH]ncc45)nc(N4CCOCC4)c3s2)CC1` [GDC-0941] was run?
A: Its EC50 is 624 nM.

Q: And the EC50 (PI3Kβ)?
A: Its EC50 is 176 nM.

Q: And the GI50 (AMO-1)?
A: Its GI50 is 300 nM.

Q: What about the GI50 (CMK) of the same compound?
A: Its GI50 is 300 nM.

Q: And the GI50 (HEL)?
A: Its GI50 is over 10000 nM.

Q: And the GI50 (HL-60)?
A: The GI50 was 160 nM.

Q: What about the GI50 (HT) of the same compound?
A: Its GI50 is 500 nM.

Q: What about the GI50 (JVM-2) of the same compound?
A: The GI50 was over 10000 nM.

Q: What about the GI50 (MOLM-13) of the same compound?
A: Its GI50 is 150 nM.

Q: What about the GI50 (MOLM-14) of the same compound?
A: Its GI50 is 300 nM.

Q: And the GI50 (MV4-11)?
A: The GI50 was 1400 nM.

Q: And the GI50 (NALM-6)?
A: The GI50 was 390 nM.

Q: What about the GI50 (NB4) of the same compound?
A: Its GI50 is 1000 nM.

Q: What about the GI50 (NOMO-1) of the same compound?
A: Its GI50 is 1000 nM.

Q: And the GI50 (Namalwa)?
A: Its GI50 is 390 nM.

Q: What about the GI50 (OCI-AML-2) of the same compound?
A: The GI50 was 2000 nM.

Q: And the GI50 (OCI-AML-3)?
A: Its GI50 is 730 nM.

Q: And the GI50 (PF382)?
A: The GI50 was 460 nM.

Q: What about the GI50 (RPMI8226) of the same compound?
A: The GI50 was 2600 nM.

Q: And the GI50 (Ramos(new))?
A: The GI50 was 2100 nM.

Q: And the GI50 (SKM-1)?
A: The GI50 was 540 nM.

Q: And the GI50 (U937)?
A: Its GI50 is 1600 nM.
